# Test system: mouse fibroblasts L929 cells
# Test: Cell viability assay (MTT, ISO 10993-5)
# Format: cell-based
# Settings: 24 h, highest dilution causing 30% or higher destruction of cells
# Protocol: Culture medium RPMI 1640, without phenol red (Biowest, Nuaille, France) supplemented with 10% FBS, 2 mM […] penicillin, 100 μg/mL streptomycin were used. Briefly, 1 × 10^4/well of L929 cells were placed in 96-well plates and incubated for 24 h at 37 °C and 10% CO2. Afterwards, the old culture medium was replaced with 100 μL of the compound, drug or inhibitor, diluted in culture medium and the cells treated for 24 h. Additionally, cells were treated with 0.03-4.0% concentration of DMSO as the solvent (data not shown). Then, 50 μL of 1 mg/mL of MTT solution in RPMI 1640 without phenol red was added to each well and incubated for 2 h at 37 °C and 10% CO2. Next, cell culture medium was aspirated carefully and 150 μL of DMSO was added to each well, and the plates were gently mixed. Then, 25 μL 0.1 M glycine buffer (pH 10.5) (Sigma-Aldrich) was added. The optical density at 570 nm using a multi-mode microplate reader SpectraMax® i3 (Syngen, Taipei City, Taiwan) was recorded. The results were expressed as a percentage of viability compared to untreated cells. All experiments were performed in triplicate. The reported methyl thiazolyltetrazole (MTT) method was used to study in vitro cytotoxic profile of the s-triazoles 1b-27b to the host cells (L929). Experiments were performed in accordance with the international standard IS0-10993-5:2009. […] The data for acyclic precursors 1a-27a are also included for comparison[39]^,[40].
row,SMILES,CC30 [µg/mL]
1,"Cc1nc[nH]c1-c1n[nH]c(=S)n1-c1ccccc1Cl [4b, 4–(2-chlorophenyl)-5–(4-methylimidazol-5-yl)-1,2,4-triazole-3-thione]",698.23
2,"Cc1nc[nH]c1-c1n[nH]c(=S)n1-c1cccc(Br)c1 [8b, 4–(3-bromophenyl)-5–(4-methylimidazol-5-yl)-1,2,4-triazole-3-thione]",660.09
3,"Cc1nc[nH]c1-c1n[nH]c(=S)n1Cc1ccccc1 [27b, 4-benzyl-5–(4-methylimidazol-5-yl)-1,2,4-triazole-3-thione]",425.30
4,"CCOc1ccc(-n2c(-c3[nH]cnc3C)n[nH]c2=S)cc1 [22b, 4–(4-ethoxyphenyl)-5–(4-methylimidazol-5-yl)-1,2,4-triazole-3-thione]",1881.91
5,"CCN(CC)c1ccc(-n2c(-c3[nH]cnc3C)n[nH]c2=S)cc1 [26b, 4–(4-diethylaminophenyl)-5–(4-methylimidazol-5-yl)-1,2,4-triazole-3-thione]",230.94
6,"Cc1nc[nH]c1-c1n[nH]c(=S)n1-c1cccc(Cl)c1 [5b, 4–(3-chlorophenyl)-5–(4-methylimidazol-5-yl)-1,2,4-triazole-3-thione]",721.27
7,"Cc1ccc(-n2c(-c3[nH]cnc3C)n[nH]c2=S)cc1Cl [17b, 4–(3-chloro-4-methylphenyl)-5–(4-methylimidazol-5-yl)-1,2,4-triazole-3-thione]",414.57
8,"Cc1nc[nH]c1-c1n[nH]c(=S)n1-c1ccccc1I [10b, 4–(2-iodophenyl)-5–(4-methylimidazol-5-yl)-1,2,4-triazole-3-thione]",1021.41
9,"Cc1nc[nH]c1-c1n[nH]c(=S)n1-c1cccc(I)c1 [11b, 4–(3-iodophenyl)-5–(4-methylimidazol-5-yl)-1,2,4-triazole-3-thione]",625.17
10,"Cc1cccc(-n2c(-c3[nH]cnc3C)n[nH]c2=S)c1 [15b, 5–(4-methylimidazol-5-yl)-4–(3-methylphenyl)-1,2,4-triazole-3-thione]",579.43
11,"COc1ccc(-n2c(-c3[nH]cnc3C)n[nH]c2=S)cc1OC [21b, 4–(3,4-dimethoxyphenyl)-5–(4-methylimidazol-5-yl)-1,2,4-triazole-3-thione]",318.42

# Test system: not listed separately
# Test: Cytotoxicity against glioblastoma cells (MTT)
# Format: cell-based, human
# Settings: human, T98G glioblastoma cells, 10 µg/mL, MTT, read-out: Viability of T98G cells (% of control ± SD)
# Protocol: (§1) Cytotoxic effect of 20b was evaluated using glioblastoma (T98G) cells obtained from the American Type Culture Collection (Manassas, VA). Cells were cultured in Dulbecco’s Modified Eagle’s Medium (DMEM-high glucose) (Sigma Aldrich, St. Louis, MO), supplemented with 10% heat inactivated FBS, penicillin (100 U/mL), and streptomycin (100 μg/mL) (Sigma Aldrich, St. Louis, MO). Cells were maintained in a humidified atmosphere of 5% CO2 and 95% air at 37 °C. Stock solutions of the investigated compounds (20b and temozolomide) were prepared by dissolving solid substances in a sterile DMSO. T98G glioblastoma cells were seeded into 96-well sterile plates at a density of 1 × 10^5cells/mL. After 24 h of incubation, the medium was removed from each well and then cells were incubated for the next 24 h with different concentrations of the investigated compounds (10, 25, 35, 50, and 100 µg/mL) in the medium containing 2% FBS. Viability of T98G cells was evaluated using MTT assay, whose principle is based on the conversion of 3–(4,5-dimethylthiazol-2-yl)-2,5-diphenyltetrazolium bromide (MTT) into dark-blue formazan crystals. In brief, after 24 h incubation of cells with varying concentrations of the tested compounds, culture medium was removed from the plate. Cells were washed with PBS, and then 100 µL of medium containing 10% MTT solution (5 mg/mL) was added to each well. After 3 h incubation, 100 µL (per well) of 10% SDS buffer solution was added to solubilise formazan crystals. After overnight incubation the absorbance was measured at 570 nm using a microplate reader (Epoch, BioTek Instruments, Winooski, VT). Experiments were repeated three times, and the measurements in each experiment were run in quadruplicate. Viability of the investigated cells was expressed as % of the viability of the untreated cells.
row,SMILES,"viability at 24 h, 10 µg/mL [%]"
1,"Cn1nnc2c(C(N)=O)ncn2c1=O [Temozolomide, reference compound]",66.6 ± 1.07

# Same assay, conditions: human, T98G glioblastoma cells, 25 µg/mL, MTT, read-out: Viability of T98G cells (% of control ± SD)
row,SMILES,"viability at 24 h, 25 µg/mL [%]"
1,"Cn1nnc2c(C(N)=O)ncn2c1=O [Temozolomide, reference compound]",61.11 ± 0.45

# Same assay, conditions: human, T98G glioblastoma cells, 35 µg/mL, MTT, read-out: Viability of T98G cells (% of control ± SD)
row,SMILES,"viability at 24 h, 35 µg/mL [%]"
1,"Cn1nnc2c(C(N)=O)ncn2c1=O [Temozolomide, reference compound]",57.3 ± 2.25

# Same assay, conditions: human, T98G glioblastoma cells, 50 µg/mL, MTT, read-out: Viability of T98G cells (% of control ± SD)
row,SMILES,"viability at 24 h, 50 µg/mL [%]"
1,"Cn1nnc2c(C(N)=O)ncn2c1=O [Temozolomide, reference compound]",55.3 ± 1.81

# Same assay, conditions: human, T98G glioblastoma cells, 100 µg/mL, MTT, read-out: Viability of T98G cells (% of control ± SD)
row,SMILES,"viability at 24 h, 100 µg/mL [%]"
1,"Cn1nnc2c(C(N)=O)ncn2c1=O [Temozolomide, reference compound]",53.95 ± 0.33

# Test system: human glioblastoma T98G cells
# Test: Cytotoxicity against glioblastoma cells (MTT)
# Format: cell-based
# Settings: 10 µg/mL, 24 h
# Protocol: as §1
row,SMILES,reduction of T98G cell viability [%]
1,"Cn1nnc2c(C(N)=O)ncn2c1=O [Temozolomide, reference compound]",~33

# Same assay, conditions: 100 µg/mL, 24 h
row,SMILES,reduction of T98G cell viability [%]
1,"Cn1nnc2c(C(N)=O)ncn2c1=O [Temozolomide, reference compound]",~46

# Test system: not listed separately
# Test: Haemolytic activity determination
# Format: cell-based
# Settings: 0.1%, positive control, human RBCs, 37 °C, 30 min; read-out: Haemolysis (%)
# Protocol: Human red blood cells (RBCs) concentrate was obtained from the Regional Blood Donation and Transfusion Centre (Lublin, Poland). RBCs concentrate (5 mL) was washed three times with sterile PBS and centrifuged at 500 g for 3 min. […] The amount of free haemoglobin in supernatants was measured spectrophotometrically at 405 nm. Negative and positive controls were performed by incubating RBCs with sterile PBS and 0.1% Triton-X, respectively. Each experiment was run in triplicate.
row,SMILES,"hemolysis at 30 min, 0.1 % [%]"
1,"CC(C)(C)CC(C)(C)c1ccc(OCCO)cc1 [Triton-X, reference compound]",99.78 ± 0.34

# Test system: not given
# Test: not given
# Settings: not given
row,SMILES,melting point [°C]
1,"Cc1nc[nH]c1-c1n[nH]c(=S)n1-c1ccccc1Cl [4b, 4–(2-chlorophenyl)-5–(4-methylimidazol-5-yl)-1,2,4-triazole-3-thione]",243.4
2,"Cc1nc[nH]c1-c1n[nH]c(=S)n1-c1cccc(Br)c1 [8b, 4–(3-bromophenyl)-5–(4-methylimidazol-5-yl)-1,2,4-triazole-3-thione]",299.7
3,"Cc1nc[nH]c1-c1n[nH]c(=S)n1Cc1ccccc1 [27b, 4-benzyl-5–(4-methylimidazol-5-yl)-1,2,4-triazole-3-thione]",229.5
4,"CCOc1ccc(-n2c(-c3[nH]cnc3C)n[nH]c2=S)cc1 [22b, 4–(4-ethoxyphenyl)-5–(4-methylimidazol-5-yl)-1,2,4-triazole-3-thione]",239.9
5,"CCN(CC)c1ccc(-n2c(-c3[nH]cnc3C)n[nH]c2=S)cc1 [26b, 4–(4-diethylaminophenyl)-5–(4-methylimidazol-5-yl)-1,2,4-triazole-3-thione]",147
6,"Cc1nc[nH]c1-c1n[nH]c(=S)n1-c1cccc(Cl)c1 [5b, 4–(3-chlorophenyl)-5–(4-methylimidazol-5-yl)-1,2,4-triazole-3-thione]",297.8
7,"Cc1ccc(-n2c(-c3[nH]cnc3C)n[nH]c2=S)cc1Cl [17b, 4–(3-chloro-4-methylphenyl)-5–(4-methylimidazol-5-yl)-1,2,4-triazole-3-thione]",264.1
8,"Cc1nc[nH]c1-c1n[nH]c(=S)n1-c1ccccc1I [10b, 4–(2-iodophenyl)-5–(4-methylimidazol-5-yl)-1,2,4-triazole-3-thione]",297.6
9,"Cc1nc[nH]c1-c1n[nH]c(=S)n1-c1cccc(I)c1 [11b, 4–(3-iodophenyl)-5–(4-methylimidazol-5-yl)-1,2,4-triazole-3-thione]",276.5
10,"Cc1cccc(-n2c(-c3[nH]cnc3C)n[nH]c2=S)c1 [15b, 5–(4-methylimidazol-5-yl)-4–(3-methylphenyl)-1,2,4-triazole-3-thione]",248.7
11,"COc1ccc(-n2c(-c3[nH]cnc3C)n[nH]c2=S)cc1OC [21b, 4–(3,4-dimethoxyphenyl)-5–(4-methylimidazol-5-yl)-1,2,4-triazole-3-thione]",213.4

# Test system: T. gondii RH-GFP
# Test: Antiparasitic assay: T. gondii RH-GFP proliferation in Hs27 cells
# Format: cell-based, Toxoplasma gondii
# Settings: Toxoplasma gondii; T. gondii RH-GFP in Hs27 cells, 96 h; values above highest tested concentration extrapolated; read-out: IC50Tg
row,SMILES,IC50 [µg/mL]
1,"Cc1nc[nH]c1-c1n[nH]c(=S)n1-c1ccccc1Cl [4b, 4–(2-chlorophenyl)-5–(4-methylimidazol-5-yl)-1,2,4-triazole-3-thione]",345
2,"Cc1nc[nH]c1-c1n[nH]c(=S)n1-c1cccc(Br)c1 [8b, 4–(3-bromophenyl)-5–(4-methylimidazol-5-yl)-1,2,4-triazole-3-thione]",103
3,"Cc1nc[nH]c1-c1n[nH]c(=S)n1Cc1ccccc1 [27b, 4-benzyl-5–(4-methylimidazol-5-yl)-1,2,4-triazole-3-thione]",148
4,"CCOc1ccc(-n2c(-c3[nH]cnc3C)n[nH]c2=S)cc1 [22b, 4–(4-ethoxyphenyl)-5–(4-methylimidazol-5-yl)-1,2,4-triazole-3-thione]",64.2
5,"CCN(CC)c1ccc(-n2c(-c3[nH]cnc3C)n[nH]c2=S)cc1 [26b, 4–(4-diethylaminophenyl)-5–(4-methylimidazol-5-yl)-1,2,4-triazole-3-thione]",157
6,"Cc1nc[nH]c1-c1n[nH]c(=S)n1-c1cccc(Cl)c1 [5b, 4–(3-chlorophenyl)-5–(4-methylimidazol-5-yl)-1,2,4-triazole-3-thione]",310
7,"Cc1ccc(-n2c(-c3[nH]cnc3C)n[nH]c2=S)cc1Cl [17b, 4–(3-chloro-4-methylphenyl)-5–(4-methylimidazol-5-yl)-1,2,4-triazole-3-thione]",175
8,"Cc1nc[nH]c1-c1n[nH]c(=S)n1-c1ccccc1I [10b, 4–(2-iodophenyl)-5–(4-methylimidazol-5-yl)-1,2,4-triazole-3-thione]",80.3
9,"Cc1nc[nH]c1-c1n[nH]c(=S)n1-c1cccc(I)c1 [11b, 4–(3-iodophenyl)-5–(4-methylimidazol-5-yl)-1,2,4-triazole-3-thione]",36.4
10,"Cc1cccc(-n2c(-c3[nH]cnc3C)n[nH]c2=S)c1 [15b, 5–(4-methylimidazol-5-yl)-4–(3-methylphenyl)-1,2,4-triazole-3-thione]",79.1
11,"COc1ccc(-n2c(-c3[nH]cnc3C)n[nH]c2=S)cc1OC [21b, 4–(3,4-dimethoxyphenyl)-5–(4-methylimidazol-5-yl)-1,2,4-triazole-3-thione]",139

# Same assay, conditions: selectivity index, CC30 (L929)/IC50Tg
row,SMILES,SI
1,"Cc1nc[nH]c1-c1n[nH]c(=S)n1-c1ccccc1Cl [4b, 4–(2-chlorophenyl)-5–(4-methylimidazol-5-yl)-1,2,4-triazole-3-thione]",2.03
2,"Cc1nc[nH]c1-c1n[nH]c(=S)n1-c1cccc(Br)c1 [8b, 4–(3-bromophenyl)-5–(4-methylimidazol-5-yl)-1,2,4-triazole-3-thione]",6.41
3,"Cc1nc[nH]c1-c1n[nH]c(=S)n1Cc1ccccc1 [27b, 4-benzyl-5–(4-methylimidazol-5-yl)-1,2,4-triazole-3-thione]",2.87
4,"CCOc1ccc(-n2c(-c3[nH]cnc3C)n[nH]c2=S)cc1 [22b, 4–(4-ethoxyphenyl)-5–(4-methylimidazol-5-yl)-1,2,4-triazole-3-thione]",29.33
5,"CCN(CC)c1ccc(-n2c(-c3[nH]cnc3C)n[nH]c2=S)cc1 [26b, 4–(4-diethylaminophenyl)-5–(4-methylimidazol-5-yl)-1,2,4-triazole-3-thione]",1.47
6,"Cc1nc[nH]c1-c1n[nH]c(=S)n1-c1cccc(Cl)c1 [5b, 4–(3-chlorophenyl)-5–(4-methylimidazol-5-yl)-1,2,4-triazole-3-thione]",2.32
7,"Cc1ccc(-n2c(-c3[nH]cnc3C)n[nH]c2=S)cc1Cl [17b, 4–(3-chloro-4-methylphenyl)-5–(4-methylimidazol-5-yl)-1,2,4-triazole-3-thione]",2.37
8,"Cc1nc[nH]c1-c1n[nH]c(=S)n1-c1ccccc1I [10b, 4–(2-iodophenyl)-5–(4-methylimidazol-5-yl)-1,2,4-triazole-3-thione]",12.73
9,"Cc1nc[nH]c1-c1n[nH]c(=S)n1-c1cccc(I)c1 [11b, 4–(3-iodophenyl)-5–(4-methylimidazol-5-yl)-1,2,4-triazole-3-thione]",17.16
10,"Cc1cccc(-n2c(-c3[nH]cnc3C)n[nH]c2=S)c1 [15b, 5–(4-methylimidazol-5-yl)-4–(3-methylphenyl)-1,2,4-triazole-3-thione]",7.33
11,"COc1ccc(-n2c(-c3[nH]cnc3C)n[nH]c2=S)cc1OC [21b, 4–(3,4-dimethoxyphenyl)-5–(4-methylimidazol-5-yl)-1,2,4-triazole-3-thione]",2.29
